A value given as a limit tells only on which side of the number the result lay.

Test [1] concerns endogenous testosterone production. As to the kind of experiment: Suppression of endogenous testosterone production by acyline. Format: in vivo, men. To be noted: 300 µg/kg acyline; for Serum testosterone concentration 24 hours after acyline administration: before oral testosterone.
Test [2] has the same test system. The following applies: 300 µg/kg acyline, normal healthy men; ref Herbst et al, 2004; cited from earlier work.
[3] abbreviates: testosterone plus finasteride group.

With acyline, in test [1] (setting [3]), the “Serum DHT concentration 24 hours after the acyline injection” value is on record as 0.54 ± 0.32 nmol/L and the “Serum testosterone concentration 24 hours after acyline administration” value was found to be 2.3 ± 1.4 nmol/L. Further, in test [1] (testosterone-only group), the “Serum DHT concentration 24 hours after the acyline injection” value turned out to be 0.6 ± 0.32 nmol/L and the “Serum testosterone concentration 24 hours after acyline administration” value turned out to be 2.0 ± 1.3 nmol/L. For the same substance, in test [2], the “Duration of testosterone suppression” value is recorded as 2 weeks and the “Time to suppress testosterone to castrate levels” value was at most 24 h.

Source of the values: publication PMC3047498 (Journal of andrology, 2010).
